Results on three compounds are retold here after article PMC8620685, “Effect of Selected Silyl Groups on the Anticancer Activity of 3,4-Dibromo-5-Hydroxy-Furan-2(5H)-One Derivatives” (Pharmaceuticals, 2021).

For one series, the system named is HCT 116 wt. Put plainly: MTT assay, HCT 116 wt. Format: cell-based, human. The settings on record: Homo sapiens, HCT-116, 72 h, read-out: IC50 (cytotoxicity), HCT 116 wt, MTT, 72 h incubation. As to the method: (§1) The in vitro antitumor activities of the MBA and its derivatives (Table 2) were assayed against a panel of human cancer cell lines (HCT116, HCT-116 ^−/−p53, HT-29, MCF-7, SJSA-1, U2OS, HepG2 and Hep3B) using the MTT assay. As a reference drug we used 5-fluorouracil (5-FU). […] On the basis of in vitro antiproliferative activities, compounds 3b and 3c were selected for further mechanistic studies in the HCT-116 cell line.
(§2) Human cells lines: colon cancer (HCT-116 wt, HT-29), non-small lung carcinoma (A549), and bronchial epithelial cells (BEAS-2B) were obtained from American Type Culture Collection (ATCC, Manassas, VA, USA). Isogenic cell line HCT 116 p53^−/− (deleted both p53 alleles) were a gift from Dr. Bert Vogelstein. Other cell lines, namely MCF-7, SJSA-1, U2OS, HepG2, and Hep3B were received from the collection stored at Centre of Biotechnology of Silesian University of Technology. All cells were grown in DMEM with a high glucose medium (Sigma-Aldrich, Taufkirchen, Germany) supplemented with 10% (v/v) inactivated fetal bovine serum (FBS) (EURx, Gdańsk, Poland) and 1% antibiotics (10,000 μg/mL of streptomycin and 10,000 units/ml of penicillin) (Sigma-Aldrich, Taufkirchen, Germany) at 37 °C in humidified 5% CO2. The maximum concentration of DMSO in the culture media was 0.4%.
(§3) 5 × 10^3 cells per well for the MCF-7 cell line and 2.5 × 10^3 cells per well for the other cell lines were seeded in 96-well plates to adhere for 24 h. Afterward, the cells were treated with tested compounds. After 72 hours of incubation, 50 μL 0.5 mg/ml solution of MTT (3-(4,5-dimethylthiazol-2-yl)-2,5-diphenyl-2H-tetrazolium bromide) were added to each well and the plates were incubated for 3 h at 37 °C. Next, the MTT solution was removed from the plates and formed formazan crystals were dissolved in 2-propanol (Avantor Performance Materials, Gliwice, Poland) containing 0.04 M hydrochloric acid (Avantor Performance Materials, Gliwice, Poland). The absorbance was measured at 570 nm wavelength using a multiwall plate reader (BioTek, Winooski, VT, USA). The experiment was performed at a minimum of 3 independent replicates. Cell viability was set as a percentage versus vehicle control. IC50 was defined as a concentration of a drug that decreased cell viability by 50% relative to the untreated control.
In general terms: Formazan colour is commonly taken as a measure of viable cells.

Another series relates to HCT 116 p53−/−. Put plainly: MTT assay, HCT 116 p53−/−. Format: cell-based. The settings on record: Homo sapiens, HCT-116, 72 h, read-out: IC50 (cytotoxicity), HCT 116 p53−/−. The method, then:
as §1, §2, §3

The subject of the next series is Hep3B. Put plainly: MTT assay, Hep3B. To be noted: Homo sapiens, read-out: IC50 (cytotoxicity), Hep3B. The format is cell-based. As to the method: as §1, §2, §3
The test system of the next series is A549. As to the kind of experiment: MTT assay, NSCLC cell line A549. Format: cell-based, human. To be noted: for IC50: Homo sapiens, read-out: IC50 (cytotoxicity), A549; for SI: selectivity, A549 versus BEAS-2B. The method, then:
(§4) One of the major drawbacks of currently used anticancer drugs is their low selectivity, which often leads to undesired side effects that may be harmful to patients. Overcoming this challenging task requires special attention at the pre-clinical development level. To check whether silyl group incorporation may affect the selectivity of compounds towards cancer cells, MBA and all its new silyl derivatives were tested for their efficacy on noncancerous BEAS-2B and cancerous A549 cells line. […] In contrast, compounds 3a and 3d were more cytotoxic to A549 cells with SI values 6.05 and 1.72, respectively. Strikingly, those two compounds have similar cLogP values 3.08 and 3.22, respectively.
as §2, §3

The nature of series [1]: MTT assay, normal bronchial epithelium cell line BEAS-2B. The format is cell-based. The settings on record: human. As to the method: as §4, §2, §3
For the next series, the system named is HCT-116 cells. Put plainly: Cell cycle analysis (PI staining, flow cytometry). To be noted: 24 h; for effect on progression of the cell cycle / sub-G1 cells / increase of the sub-G1 population: HCT-116; for sub-G1 cells: untreated cells 0.3%. The format is cell-based, human. The method, then: To better understand the origin of the higher susceptibility of colon cancer cells to MBA and its novel derivatives, compounds 3b and 3c were selected to test their ability to perturb the cell cycle in the HCT-116 cell line. […] However, a significant increase in the percentage of sub-G1 cells after treatment with compounds 3b and 3c was observed. Compound 3b increased the sub-G1 population by 10% and 31%, at a concentration of 10 μM and 20 μM, respectively, while compound 3c exerts such effect only by 10% at the highest tested concentration (Figure 2).
The HCT 116 cells were seeded in 6-well plates (Nunc, ThermoFisher, Waltham, MA, USA) at a density of 5 × 10^4 cells/well. After 24 h the medium was replaced with tested compounds. The cells were incubated for 24 h at 37 °C. Afterward, floating cells were collected and adherent cells were harvested by trypsinization and centrifuged at 600× g. The cells were washed with PBS (phosphate buffered saline) (Sigma-Aldrich, Taufkirchen, Germany) and then fixed in 70% ice-cold ethanol and stored at −20 °C overnight. The next day the cells were centrifuged at 600× g, washed with PBS, treated with 100 μg/mL RNase A solution (EURx, Gdańsk, Poland), 100 μg/ml solution of propidium iodide (PI) (Acros Organics, Geel, Belgium) and incubated for 30 min at room temperature in the dark. After staining, the cells were analyzed using a Becton Dickinson FACS Aria III sorter (BD Company, San Diego, CA, USA). Experiments were repeated at least twice. Data were analyzed using ModFit LTTM Software (Verity Software House, Topsham, ME, USA).
Background: In flow cytometry, cells or beads pass a laser one at a time.

For another series, the system named is cleaved caspase-3. Put plainly: Human Apoptosis Proteome Profiler array, cleaved caspase-3. Format: cell-based. To be noted: HCT-116, 1 h exposure, 2 × IC50 (3b at 30.2 μM). From the text:
To explore in detail the molecular mechanism of apoptosis induction by compounds 3b and 3c, we employed Human Apoptosis Proteome Profiler arrays that allow quantification of apoptosis-related biomarkers (Figure 3C). […] Collectively, it can be concluded that silyl derivative 3b promotes cell death in HCT 116 cells by the alteration of expression levels of survivin and activation of caspase-3.
The Human Apoptosis Array Kit (R&D Systems, Abingdon, UK) was used to determine the levels of expression of apoptosis-related proteins. 2.5 × 10^5 HCT 116 wt cells were seeded on 100 mm dishes (Nunc, ThermoFisher, Waltham, MA, USA) and allowed to attach for 24 h. Then the medium was replaced with tested compounds at a concentration corresponding 2 × IC50 value and the cells were incubated in 37 °C. After 60 min the cells were lysed and the lysates were clarified by centrifugation for 30 min at 14,000× g. The total protein concentration was measured using the Protein Quantification Kit-Rapid (Sigma-Aldrich, Taufkirchen, Germany) according to the manufacturer’s instruction. The next steps followed instructions from the manufacturer of the Human Apoptosis Array Kit. The membranes were then scanned in the G:Box trans illuminator (Syngene, Cambridge, UK) and the protein expression levels were quantified by densitometric analysis using ImageJ software.

Setting [2] is: BEAS-2B cells (noncancerous bronchial epithelial cells), MTT, 72 h incubation, noncancerous cells, read-out: IC50 (cytotoxicity), BEAS-2B.

Like-named read-outs stand apart in the source and are kept apart here.

Consider `O=C1OC(O)C(Br)=C1Br` (centres unmarked) [MBA, 3,4-dibromo-5-hydroxyfuran-2(5H)-one, reference compound], for which the IC50 in the series with HCT 116 wt is 20.5 ± 5.2 µM; with HCT 116 p53−/−, 25.4 ± 6 µM; in the series with Hep3B (72 h), 125 ± 10.5 µM; in the series on A549 (A549, 72 h) it was 203 ± 0.3 µM. This compound displayed an SI with A549 of 0.2. The compound further showed an IC50 at 72 h in series [1] of 39.7 ± 9.7 µM. Also, the “effect on progression of the cell cycle” value in the series on HCT-116 cells (10 μM) is “neither the MBA nor its silyl derivatives 3b and 3c tested at 10 μM, influenced the progression of the cell cycle”. Besides, the figures for the sub-G1 cells in the series on HCT-116 cells (10 μM) and with HCT-116 cells (20 μM) were 0.7% and 1.6%, respectively. Moreover, the “percentage of cells in G1 phase” value in the series with HCT-116 cells (20 μM, HCT 116, representative cytogram) is 38.9%. In addition, in the series on cleaved caspase-3, the “cleaved caspase-3 level (caspase-3 activation)” value (from here on “cleaved caspase-3 level”) is “neither the MBA nor compound 3c induced caspase-3 activation”.
For `CC(C)(C)[Si](OC1OC(=O)C(Br)=C1Br)(c1ccccc1)c1ccccc1` (centres unmarked) [Compound 3c, 3,4-Dibromo-5-(tert-butyldiphenylsilyloxy)-furan-2(5H)-one], the IC50 in the series on HCT 116 wt stood at 6.3 ± 0.3 µM; in the series with HCT 116 p53−/−, 4 ± 0.3 µM; in the series with Hep3B (MTT, 72 h incubation) it was 65.6 ± 2.2 µM; in the series on A549 (A549, MTT, 72 h incubation), 29.1 ± 1 µM. Also, the SI in the series on A549 stood at 0.70. In series [1] (setting [2]), the IC50 at 72 h came out at 20.3 ± 0.6 µM. Moreover, the “effect on progression of the cell cycle” value with HCT-116 cells (10 μM) is “neither the MBA nor its silyl derivatives 3b and 3c tested at 10 μM, influenced the progression of the cell cycle”; in the series on HCT-116 cells (20 μM), “did not alter the progression of the cell cycle”. Also, the “increase of the sub-G1 population” value with HCT-116 cells (20 μM) is recorded as 10%. The “cleaved caspase-3 level” value in the series on cleaved caspase-3 is “neither the MBA nor compound 3c induced caspase-3 activation”.
Take `CC(C)[Si](OC1OC(=O)C(Br)=C1Br)(C(C)C)C(C)C` (centres unmarked) [Compound 3b, 3,4-Dibromo-5-(triisopropylsilyloxy)-furan-2(5H)-one]: the IC50 in the series on HCT 116 wt was found to be 15.1 ± 1.2 µM; in the series on HCT 116 p53−/− it was 10.8 ± 1 µM; in the series on Hep3B (MTT, 72 h incubation), 21.3 ± 3.5 µM; in the series on A549 (A549, MTT, 72 h incubation) it was 30.4 ± 4.2 µM. For the same compound, the SI in the series on A549 amounted to 0.41. For the same compound, the IC50 at 72 h in series [1] (setting [2]) was 12.5 ± 1.4 µM. Also, the “effect on progression of the cell cycle” value is “neither the MBA nor its silyl derivatives 3b and 3c tested at 10 μM, influenced the progression of the cell cycle” in the series on HCT-116 cells (10 μM); “did not alter the progression of the cell cycle” in the series on HCT-116 cells (20 μM). Further, the “increase of the sub-G1 population” value was determined as 10% in the series with HCT-116 cells (10 μM) and 31% in the series with HCT-116 cells (20 μM). Besides, the “cleaved caspase-3 level” value in the series on cleaved caspase-3 was “significant up-regulation of cleaved caspase-3”.
